Measured values reported in paper PMC8152814, “The modulatory role of sulfated and non-sulfated small molecule heparan sulfate-glycomimetics in endothelial dysfunction: absolute structural clarification, molecular docking and simulated dynamics, SAR analyses and ADMET studies” (RSC Medicinal Chemistry, 2021).

How the values were obtained:
Assay type in all cases: cell-based, human
Conditions in all cases: averaged % of increase (+) or decrease (−) compared to control (FFA induced oxidatively stressed endothelial cells), n = 3
[1] = test system: reactive oxygen species (ROS); test: ROS production in FFA-stressed cells
Excerpt: (§1) The assays focused on the production of nitric oxide (NO) and the upregulation of nitric oxide synthase (eNOS), the production of reactive oxygen species (ROS) and the activity of nicotinamide adenine dinucleotide phosphate (NADPH) oxidase (Table 2). From the hypothesised model of heparan sulfate-glycomimetic activity,[17] the glycomimetics are proposed to attenuate the binding of HGF to the cMET receptor. This disruption to MET-receptor activation is proposed to modulate intracellular phosphorylation leading to an upregulation of eNOS and increased output of extracellular NO. […] Overall, the cross examination of NO output and reduction of ROS was used to determine the therapeutic action of the triaged glycomimetics α-4, R-10, S-10 and β-5, as well as 3 non-sulfated intermediates α-2, α-3 and β-3, on free fatty acid (FFA) induced, oxidatively stressed endothelial cell cultures (Table 2).
(§2) Biological assay and AMDET experimental details […]
(§3) Preparation of FFA-albumin complexes and cell treatments
(§4) To generate the in vitro model of oxidative stress, sodium palmitate was bound to bovine serum albumin (BSA) as outlined by Chavez and Summers,S2 with modifications. Sodium palmitate (FFA) was dissolved in EtOH at 60 °C and diluted 1:100 in M199 media supplemented with 2% fatty acid-free bovine serum albumin (BSA) and incubated for 1 h at 37 °C. HepG2 cells were treated with 1 μmol/L of the synthesized HS-glycomimetics in the presence of palmitate (100 μmol/L) for 3 h or pre-treated with glycomimetics for 12 h followed by 3 h palmitate (100 μmol/L). Control cells were incubated in serum free M199 containing 2% (wt/vol) fatty acid-free BSA.
NO release assay and Quantification of ROS production […]
The auto-fluorescence was subtracted from each value. Cells were incubated with 10 μmol/L of the fluorescent probe: 2′-7′-dichlorodihydrofluorescein diacetate (CM-H2DCFDA, Sigma) for 30 min at 37 °C, and the level of fluorescence was determined (excitation 490 nm; emission 540 nm) using a microplate reader (BioTek).
(§5) The level of NADPH-enhanced superoxide anions (O2•−) in HepG2 homogenates was determined by lucigenin-enhanced chemiluminescence.S4 Following the various treatment conditions, cells were homogenized in a buffer (20 mmol/L H2KPO4 and 1 mmol/L EDTA supplemented with aprotinin, leuprotinin, pepstatin and PMSF). The total protein quantified using the Bicinchoninic acid (BCA) assay (Pierce Biotechnology). To 50 μg of total protein, NADPH (100 μmol/L) was added in a total volume of 500 μL, with lucigenin (5 μmol/L) and was injected automatically. Activity was determined by measuring luminescence over 200 s in a scintillation counter (Lumat LB 9507, Berthold, Germany). Basal values of NADPH oxidase activity were subtracted from the experimental values and expressed as RLU/min/μg protein […]
(§6) In situ quantification of ROS species
(§7) Superoxide dismutase (SOD) and catalase (CAT) activity assays, and in situ detection of vascular ROS content. The activity of the enzymes, SOD and CAT, was determined in cell homogenates using assay kits according to the manufacturer's instructions (Cayman; Cat No 706002 and 707002 respectively). A unit of SOD was defined as the amount of enzyme […]
(§8) Similarly, a unit of CAT was […]
defined as the amount required to form 1.0 nmol of formaldehyde per min at 25 °C.S5 […]
HepG2 cells were incubated in serum-free DMEM containing 2% fatty acid-free BSA (control) or palmitate conjugated BSA (100 μmol/L) in the presence of HS-glycomimetics (1 or 10 μmol/L) for 24 h. The cells were incubated for 30 min in Hepes-buffered solution containing 10 μmol/L dihydroethidium (DHE), which intercalates with DNA in the presence of ROS and is detectable by fluorescence. Cells were counterstained with the nuclear stain DAPI at 0.3 μmol/L. In the following 24 h, the cell cultures were examined using a fluorescence microscope (Leica DMIRB). Sections were photographed and fluorescence was quantified using ImageJ. […]

[2] = test system: NADPH oxidase; test: NADPH oxidase activity (lucigenin chemiluminescence) in cell homogenates; parameters: concentration or dose not given beside the values
Excerpt: as §1, §2, §3
as §4, with “BSA. […]” for “BSA.”
(§9) H2DCFDA, Sigma) for 30 min at 37 °C, and the level of fluorescence was determined (excitation 490 nm; emission 540 nm) using a microplate reader (BioTek).
as §5, §6, §7, §8
(§10) defined as the amount required to form 1.0 nmol of formaldehyde per min at 25 °C.S5

[3] = test system: eNOS; test: eNOS phosphorylation (Western blot) in FFA-stressed cells
Excerpt: as §1, §2, §3
as §4, with “BSA. […]” for “BSA.”
HepG2 wells were lysed in RIPA buffer containing proteinase inhibitors and the total protein was quantified using BCA protein assay kit (Pierce Biotechnology). Proteins (30 μg/well) were denatured and separated by sodium dodecyl sulfate (SDS)-polyacrylamide gel electrophoresis and transferred to polyvinylidene difluoride (PVDF) membranes. Blots were blocked for 1 h in 5% semi-skimmed milk/Tris-Buffered Saline Tween-20 (TBS-T), probed with primary rabbit anti-phospho-protein kinase B (Akt), rabbit anti-Akt (Santa Cruz Biotechnology), rabbit polyclonal anti-phospho-eNOS (Cell Signaling) overnight at 4 °C followed by washing and incubation with the corresponding horse radish peroxidase-labelled secondary antibody for 1 h at room temperature. After washing with TBS-T, membranes were incubated with ECL reagent and visualized (Amersham Pharmacia Biotech). Densitometry analysis using ImageJ© (version 1.32j, NIH) was used to quantify the protein signal.S7 […]
(typically 0.01 M phosphate buffered saline pH 7.4) so that the final DMSO concentration is 1 % and the final test compound concentrations are 1, 3, 10, 30 and 100 µM. The experiment is performed at 37 °C and each concentration is incubated in 7 replicate wells. The plates are incubated for 2 h at 37 °C before the absorbance is measured at 620nm. Nicardipine (pH dependent) and pyrene (pH independent) are included as control compounds. The solubility is estimated from the concentration of test compound that produces an increase in absorbance above vehicle control (1% DMSO in buffer).

[4] = test system: nitric oxide (NO); test: NO release assay (DAF-2) in FFA-stressed cells
Excerpt: as §1, §2, §3, §4
NO release assay and Quantification of ROS production
NO release was determined using diaminofluorescein-2 (DAF-2).S3 The cells were washed with PBS and incubated with L-arginine (100 μmol/L in PBS) for 5 min at 37 °C before incubation with DAF-2 (0.1 μmol/L) for 2 min, followed by the calcium ionophore calimycin (A23187, 1 μmol L) for 30 min. L-NAME (100 μmol/L), a nitric oxide inhibitor (NOS), was also added 20 min before the addition of L-arginine in some experiments to determine the involvement of NOS. DAF-2 fluorescence (arbitrary units, AU) was quantified using a microplate reader (BioTek) with excitation and emission wavelengths of 485 nm and 540 nm, respectively. The auto-fluorescence was subtracted from each value. […]
as §9, §5, §6, §7, §8, §10

Row | SMILES | ROS production [1] [%] | NADPH oxidase activity [2] [%] | eNOS phosphorylation [3] | NO production [4]
1 | COC(=O)c1cc(OC[C@H](O)CO)ccc1OC[C@@H](O)CO (mixture of isomers) [α-2, methyl 5-((R)-2,3-dihydroxypropoxy)-2-((S)-2,3-dihydroxypropoxy)benzoate] | −36 | −26 | +286% | +46%
2 | O=C(O)c1cc(OCC(O)CO)ccc1OCC(O)CO (mixture of isomers) [α-3, sodium 5-((R)-2,3-dihydroxypropoxy)-2-((±)-2,3-dihydroxypropoxy)benzoate] | −23 | −21 | +312% | +41%
3 | O=C(O)c1cc(OCC(O)CO)ccc1OCC(O)CO (mixture of isomers) [β-3, sodium 5-((S)-2,3-dihydroxypropoxy)-2-((±)-2,3-dihydroxypropoxy)benzoate] | −19 | −27 | +294% | +52%
